The record followed here is patent US20200138023A1, “MICROBICIDAL COMPOSITION” (DDP Specialty Electronic Materials US 8, LLC, priority 2017, published 2020).

Structures are written as SMILES. Read-outs that look alike come from different tables or passages of the source.

For experiment [1], the system named is Candida albicans ATCC 10231. Description: Synergy test, high resolution MIC microtiter plate assay, Potato Dextrose Broth. The format is cell-based. As to conditions: C. albicans ATCC 10231, PDB, contact time 48 hours. The source says:
(§1) One measure of synergism is the industrially accepted method described by Kull, F. C.; Eisman, P. C.; Sylwestrowicz, H. D. and Mayer, R. L., in Applied Microbiology 9:538-541 (1961), using the ratio determined by the formula:
(§2) Qa/QA+Qb/QB=Synergy Index (“SI”)
(§3) wherein: • QA=concentration of compound A (first component) in ppm, acting alone, which produced an end point (MIC of Compound A). • Qa=concentration of compound A in ppm, in the mixture, which produced an end point. • QB=concentration of compound B (second component) in ppm, acting alone, which produced an end point (MIC of Compound B). • Qb=concentration of compound B in ppm, in the mixture, which produced an end point.
(§4) When the sum of Qa/QA and Qb/QB is greater than one, antagonism is indicated. […] The lower the SI, the greater is the synergy shown by that particular mixture. The minimum inhibitory concentration (MIC) of a microbicide is the lowest concentration tested under a specific set of conditions that prevents the growth of the tested microorganisms.
(§5) Synergy tests were conducted using standard microtiter plate assays with media designed for optimal growth of the test microorganism. Potato Dextrose Broth (PDB medium) was used for testing yeast and mold. In this method, a wide range of combinations of microbicides and other personal care raw materials was tested by conducting high resolution MIC assays in the presence of lactic acid. High resolution MICs were determined by adding varying amounts of microbicide to one column of a microtitre plate and doing subsequent […] dilutions using an automated liquid handling system to obtain a series of closely spaced endpoints.
(§6) The synergy of the combinations of the present invention was determined against a yeast, Candida albicans (C. albicans—ATCC 10231) and a mold, Aspergillus brasiliensis (A. brasiliensis—ATCC 16404). The yeast and mold were used at concentrations of 5×10^5 cells per mL. These microorganisms are representative of natural contaminants in many consumer and industrial applications.
(§7) In this test, First Component (A) was lactic acid and the Second Component (B) was caprylic acid.
(§8) First Component (A)=Lactic acid (LA) Second Component (B)=Caprylic acid (CA) • Table 1: Aspergillus brasiliensis • ATCC 16404 • Potato Dextrose Broth • Contact Time=7 days • Table 2: Candida albicans • ATCC 10231 • Potato Dextrose Broth • Contact Time=48 hours

Experiment [2] relates to Aspergillus brasiliensis ATCC 16404. Described as above. It counts as cell-based. As to conditions: A. brasiliensis ATCC 16404, PDB, contact time 7 days; for SI (Synergy Index, Qa/QA+Qb/QB): SI less than one = synergy; for MIC: Aspergillus brasiliensis, ATCC16404, 168 h, 25° C.
Description: as §1, §2, §3, §4, §5, §6, §7, §8

Broadly, the MIC is the lowest concentration that inhibits growth of the organism.

As to `CCCCCCCC(=O)O` [Caprylic Acid, octanoic acid], the “SI (Synergy Index, Qa/QA+Qb/QB)” value in experiment [1] (SI less than one = synergy) and in experiment [2] was 1.00 in each case. Further, the MIC in experiment [1] (Candida albicans, ATCC10231, caprylic acid alone, 25° C., read-out: Caprylic Acid, ppm: MIC for caprylic acid alone (QB)) came out at 60 µg/mL; in experiment [2] (caprylic acid alone, read-out: Caprylic Acid, ppm: MIC for caprylic acid alone (QB)) it was 10000 µg/mL.

As for `CC(O)C(=O)O` (stereo not drawn) [Lactic Acid, 2-hydroxypropanoic acid], the “SI (Synergy Index, Qa/QA+Qb/QB)” value in experiment [2] was found to be 1.00. Further, in experiment [2] (lactic acid alone, read-out: Lactic Acid, ppm: MIC for lactic acid alone (QA)), the MIC was found to be 30000 µg/mL.
